Results published in patent publication US20240101576A1, “HETEROCYCLIC INHIBITORS OF EGFR AND/OR HER2, FOR USE IN THE TREATMENT OF CANCER” (Scorpion Therapeutics, Inc., priority 2020, published 2024).

Tests used:
Type in all cases: cell-based
EGFR WT (Ba/F3 cells) = target: T1, EGFR WT (Ba/F3 cells) (Homo sapiens, UniProt P00533); experiment: Inhibitor activity on EGFR-dependent cell growth (CellTiter-Glo, 72 h), Ba/F3 EGFR WT; settings: read-out: BaF3 WT IC50
T1 construct: expressed in transfected cells; host or cells: Ba/F3 (murine pro-B cells), retroviral transduction, puromycin selection, maintained with EGF
T1 sequence (P00533 25-1210): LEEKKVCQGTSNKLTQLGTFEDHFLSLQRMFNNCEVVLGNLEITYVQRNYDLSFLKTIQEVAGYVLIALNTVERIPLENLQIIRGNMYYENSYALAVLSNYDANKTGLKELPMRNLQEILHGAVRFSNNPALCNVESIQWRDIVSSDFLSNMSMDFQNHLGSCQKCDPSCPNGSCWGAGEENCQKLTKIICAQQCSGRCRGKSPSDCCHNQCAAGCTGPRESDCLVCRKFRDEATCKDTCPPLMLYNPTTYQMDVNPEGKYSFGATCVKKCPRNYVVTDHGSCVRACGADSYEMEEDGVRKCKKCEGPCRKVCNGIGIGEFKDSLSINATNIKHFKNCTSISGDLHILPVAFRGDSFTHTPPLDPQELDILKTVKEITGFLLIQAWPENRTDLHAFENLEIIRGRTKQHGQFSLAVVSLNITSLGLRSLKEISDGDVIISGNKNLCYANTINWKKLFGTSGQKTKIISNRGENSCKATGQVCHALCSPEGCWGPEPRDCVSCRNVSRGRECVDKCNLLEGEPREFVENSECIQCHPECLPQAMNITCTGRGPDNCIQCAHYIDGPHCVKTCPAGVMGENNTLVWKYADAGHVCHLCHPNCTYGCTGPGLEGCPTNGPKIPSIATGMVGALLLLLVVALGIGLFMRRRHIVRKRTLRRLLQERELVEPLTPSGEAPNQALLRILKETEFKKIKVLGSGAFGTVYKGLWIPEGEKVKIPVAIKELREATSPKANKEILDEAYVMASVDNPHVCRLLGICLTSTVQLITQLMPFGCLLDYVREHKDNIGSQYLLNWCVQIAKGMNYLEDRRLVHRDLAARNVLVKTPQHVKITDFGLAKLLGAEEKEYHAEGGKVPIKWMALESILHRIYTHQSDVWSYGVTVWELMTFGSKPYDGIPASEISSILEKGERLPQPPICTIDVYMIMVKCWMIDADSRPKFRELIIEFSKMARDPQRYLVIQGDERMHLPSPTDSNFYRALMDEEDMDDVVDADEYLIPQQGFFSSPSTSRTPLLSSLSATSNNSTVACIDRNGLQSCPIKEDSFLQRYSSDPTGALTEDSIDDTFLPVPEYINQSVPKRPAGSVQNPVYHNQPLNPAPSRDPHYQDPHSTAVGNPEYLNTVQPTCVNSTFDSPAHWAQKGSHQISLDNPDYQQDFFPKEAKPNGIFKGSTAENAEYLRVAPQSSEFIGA
Summary of the method: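 This growth assay used Ba/F3 cells that depend on wild-type EGFR and are kept in EGF without IL3. Compounds were made up as 10 mM DMSO stocks and diluted 3-fold over 10 points. 120 nL went onto 600 cells/well. After 72 hours, 40 μL CellTiter-Glo was added and luminescence read on EnVision after 30 min.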

[1] = target: T2, EGFR exon 20 ASV Ins V769_D770 (Ba/F3 cells) (Homo sapiens, UniProt P00533, INS769ASV); experiment: Inhibitor activity on EGFR-dependent cell growth (CellTiter-Glo, 72 h), Ba/F3 EGFR exon 20 ASV Ins; settings: read-out: BaF3 ASV IC50
T2 construct: expressed in transfected cells; host or cells: Ba/F3 (murine pro-B cells), retroviral transduction, puromycin selection, IL3-independent pool
T2 sequence (P00533 with tags, fused parts or gaps INS769ASV): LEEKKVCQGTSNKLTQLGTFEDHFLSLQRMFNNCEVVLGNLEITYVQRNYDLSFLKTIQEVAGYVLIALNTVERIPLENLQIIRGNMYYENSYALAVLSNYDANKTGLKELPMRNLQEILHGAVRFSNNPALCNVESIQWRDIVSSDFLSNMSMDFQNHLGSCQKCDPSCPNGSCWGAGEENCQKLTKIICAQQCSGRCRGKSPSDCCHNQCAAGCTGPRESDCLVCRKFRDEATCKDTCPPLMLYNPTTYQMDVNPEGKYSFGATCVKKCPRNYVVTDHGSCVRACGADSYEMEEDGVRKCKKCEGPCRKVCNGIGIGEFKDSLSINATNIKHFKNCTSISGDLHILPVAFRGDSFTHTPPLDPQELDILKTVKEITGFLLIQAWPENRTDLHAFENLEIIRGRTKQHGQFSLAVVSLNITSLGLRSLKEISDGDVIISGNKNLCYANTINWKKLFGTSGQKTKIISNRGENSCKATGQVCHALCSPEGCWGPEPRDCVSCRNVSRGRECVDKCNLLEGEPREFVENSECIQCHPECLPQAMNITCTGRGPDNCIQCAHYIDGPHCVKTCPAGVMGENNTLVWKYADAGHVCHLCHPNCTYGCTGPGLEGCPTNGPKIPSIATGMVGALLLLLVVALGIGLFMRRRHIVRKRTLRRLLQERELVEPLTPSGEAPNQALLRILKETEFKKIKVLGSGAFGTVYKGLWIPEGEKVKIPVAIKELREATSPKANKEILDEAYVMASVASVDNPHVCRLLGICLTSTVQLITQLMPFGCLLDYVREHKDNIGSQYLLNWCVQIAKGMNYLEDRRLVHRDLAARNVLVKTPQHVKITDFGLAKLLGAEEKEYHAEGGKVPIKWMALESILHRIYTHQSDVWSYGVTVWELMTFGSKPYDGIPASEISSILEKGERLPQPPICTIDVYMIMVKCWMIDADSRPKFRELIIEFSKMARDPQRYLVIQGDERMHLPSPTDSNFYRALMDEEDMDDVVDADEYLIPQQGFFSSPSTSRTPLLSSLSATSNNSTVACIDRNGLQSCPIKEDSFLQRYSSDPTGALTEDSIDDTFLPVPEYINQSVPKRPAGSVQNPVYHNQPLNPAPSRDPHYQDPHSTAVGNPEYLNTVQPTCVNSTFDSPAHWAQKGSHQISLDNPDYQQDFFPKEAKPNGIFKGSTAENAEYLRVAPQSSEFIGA
Summary of the method: (§1)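 IC50s derive from a sigmoidal dose–response fit of CellTiter-Glo signal. The signal was normalised between […]-treated cells and cell-free medium. Ba/F3 mutant-EGFR cells, seeded at 400–800/well depending on the line, had 72 h of exposure to a 10-point, 3-fold compound series.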

[2] = target: T3, EGFR exon 20 SVD Ins D770_N771 (Ba/F3 cells) (Homo sapiens, UniProt P00533, INS770SVD); experiment: Inhibitor activity on EGFR-dependent cell growth (CellTiter-Glo, 72 h), Ba/F3 EGFR exon 20 SVD Ins; settings: read-out: BaF3 SVD IC50
T3 construct: expressed in transfected cells; host or cells: Ba/F3 (murine pro-B cells), retroviral transduction, puromycin selection, IL3-independent pool
Summary of the method: as §1

[3] = target: T2, EGFR exon 20 ASV Ins V769_D770 (Ba/F3 cells); experiment: Inhibitor activity on EGFR phosphorylation (pEGFR AlphaLISA, 2 h), Ba/F3 EGFR exon 20 ASV Ins; settings: EGFR phosphorylation, AlphaLISA, 2 hours; read-out: ASV IC50 (pEGFR)
Summary of the method: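 Cellular EGFR autophosphorylation assay. IL3-independent Ba/F3 transductants or CUTO14 cells are incubated with serially diluted compound (3-fold, 10 points) for 2 h, then lysed and pEGFR quantified by AlphaLISA.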

[4] = target: T4, EGFR exon 20 NPG Ins D770_N771 (Ba/F3 cells) (Homo sapiens, UniProt P00533, INS770NPG); experiment: Inhibitor activity on EGFR-dependent cell growth (CellTiter-Glo, 72 h), Ba/F3 EGFR exon 20 NPG Ins; settings: read-out: BaF3 NPG IC50
T4 construct: expressed in transfected cells; host or cells: Ba/F3 (murine pro-B cells), retroviral transduction, puromycin selection, IL3-independent pool
T4 sequence (P00533 with tags, fused parts or gaps INS770NPG): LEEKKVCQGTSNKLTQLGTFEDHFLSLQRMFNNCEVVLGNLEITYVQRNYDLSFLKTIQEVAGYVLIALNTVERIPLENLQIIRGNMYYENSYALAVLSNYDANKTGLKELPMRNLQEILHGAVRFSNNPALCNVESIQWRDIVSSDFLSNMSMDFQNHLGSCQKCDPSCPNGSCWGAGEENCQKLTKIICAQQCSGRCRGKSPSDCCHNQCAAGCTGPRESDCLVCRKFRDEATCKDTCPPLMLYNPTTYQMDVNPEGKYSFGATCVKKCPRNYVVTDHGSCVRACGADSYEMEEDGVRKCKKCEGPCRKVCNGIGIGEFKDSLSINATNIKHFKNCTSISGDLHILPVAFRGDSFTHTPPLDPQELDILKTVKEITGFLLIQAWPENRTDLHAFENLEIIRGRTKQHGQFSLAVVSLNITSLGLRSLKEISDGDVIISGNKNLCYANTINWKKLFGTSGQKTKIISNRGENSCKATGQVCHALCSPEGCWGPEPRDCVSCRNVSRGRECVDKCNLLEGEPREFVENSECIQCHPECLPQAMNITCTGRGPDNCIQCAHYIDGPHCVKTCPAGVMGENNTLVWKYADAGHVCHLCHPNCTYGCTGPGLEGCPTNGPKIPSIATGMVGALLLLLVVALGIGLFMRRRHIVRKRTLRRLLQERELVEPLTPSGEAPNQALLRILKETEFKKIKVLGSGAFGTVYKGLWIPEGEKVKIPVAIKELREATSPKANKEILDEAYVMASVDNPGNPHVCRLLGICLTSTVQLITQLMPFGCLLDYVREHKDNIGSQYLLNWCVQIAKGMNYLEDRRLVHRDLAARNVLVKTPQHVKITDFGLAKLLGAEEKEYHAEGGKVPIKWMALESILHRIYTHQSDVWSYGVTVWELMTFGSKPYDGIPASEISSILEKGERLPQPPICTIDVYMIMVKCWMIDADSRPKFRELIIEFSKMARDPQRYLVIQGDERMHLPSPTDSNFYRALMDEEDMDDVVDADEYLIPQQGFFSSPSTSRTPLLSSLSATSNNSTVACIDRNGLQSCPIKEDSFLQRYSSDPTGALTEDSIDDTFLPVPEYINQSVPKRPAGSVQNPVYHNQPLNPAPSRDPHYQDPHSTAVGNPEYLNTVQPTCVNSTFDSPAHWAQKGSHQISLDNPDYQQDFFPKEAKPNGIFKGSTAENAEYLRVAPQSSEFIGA
Summary of the method: as §1

[5] = target: T5, EGFR exon 20 FQEA Ins A763_V764 (Ba/F3 cells) (Homo sapiens, UniProt P00533, INS763FQEA); experiment: Inhibitor activity on EGFR-dependent cell growth (CellTiter-Glo, 72 h), Ba/F3 EGFR exon 20 FQEA Ins; settings: read-out: BaF3 FQEA IC50
T5 construct: expressed in transfected cells; host or cells: Ba/F3 (murine pro-B cells), retroviral transduction, puromycin selection, IL3-independent pool
T5 sequence (P00533 with tags, fused parts or gaps INS763FQEA): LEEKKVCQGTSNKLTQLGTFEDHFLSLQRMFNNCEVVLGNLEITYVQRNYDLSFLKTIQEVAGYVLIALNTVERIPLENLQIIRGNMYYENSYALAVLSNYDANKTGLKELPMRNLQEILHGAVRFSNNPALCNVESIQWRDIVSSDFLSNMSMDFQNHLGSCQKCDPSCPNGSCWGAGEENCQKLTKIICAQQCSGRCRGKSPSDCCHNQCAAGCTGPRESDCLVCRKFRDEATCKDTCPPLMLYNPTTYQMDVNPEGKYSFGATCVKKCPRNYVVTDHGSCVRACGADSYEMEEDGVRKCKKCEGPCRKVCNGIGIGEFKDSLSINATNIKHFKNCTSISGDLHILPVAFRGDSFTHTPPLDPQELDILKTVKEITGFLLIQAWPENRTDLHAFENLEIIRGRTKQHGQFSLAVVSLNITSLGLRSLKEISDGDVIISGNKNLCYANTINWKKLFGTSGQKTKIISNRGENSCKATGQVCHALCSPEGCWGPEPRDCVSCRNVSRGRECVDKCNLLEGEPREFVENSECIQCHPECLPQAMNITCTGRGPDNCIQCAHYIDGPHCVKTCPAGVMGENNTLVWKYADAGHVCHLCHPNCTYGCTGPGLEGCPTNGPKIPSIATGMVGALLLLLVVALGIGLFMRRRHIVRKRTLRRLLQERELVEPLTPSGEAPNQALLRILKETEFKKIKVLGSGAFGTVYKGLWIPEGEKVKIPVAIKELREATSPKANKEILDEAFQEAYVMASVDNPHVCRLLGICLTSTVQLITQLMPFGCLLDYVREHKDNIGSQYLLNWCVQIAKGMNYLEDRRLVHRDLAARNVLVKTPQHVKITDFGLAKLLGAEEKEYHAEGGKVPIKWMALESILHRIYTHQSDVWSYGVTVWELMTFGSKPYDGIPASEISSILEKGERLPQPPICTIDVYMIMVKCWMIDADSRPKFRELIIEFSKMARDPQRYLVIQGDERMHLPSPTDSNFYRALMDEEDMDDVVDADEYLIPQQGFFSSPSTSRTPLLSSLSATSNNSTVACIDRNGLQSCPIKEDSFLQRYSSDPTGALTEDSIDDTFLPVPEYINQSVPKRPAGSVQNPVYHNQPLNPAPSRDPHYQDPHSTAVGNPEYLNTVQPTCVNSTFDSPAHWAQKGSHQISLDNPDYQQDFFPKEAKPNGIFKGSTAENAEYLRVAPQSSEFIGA
Summary of the method: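 For each mutant line, growth depends on EGFR signalling in the absence of IL3. Density per well: 400 for L858R, 600 for the C797S double mutant, 800 for exon 19del and FQEA. Ten threefold dilutions were applied for 72 h. %Inhibition = 100×(DMSO − sample)/(DMSO − medium blank).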

Structure (SMILES) | IC50 (EGFR WT (Ba/F3 cells)) [nM] | IC50 [1] [nM] | IC50 [2] [nM] | IC50 [3] [nM] | IC50 [4] [nM] | IC50 [5] [nM]
COc1nn(C)cc1Nc1nccc(-c2[nH]c3c(c2Nc2cccc(Cl)c2OC)C(=O)NCC3)n1 [compound 219] | < 100 | < 100 | < 100 | < 100 | < 100 | < 100
COc1c(Cl)cccc1Nc1c(-c2ccnc(NC(C)C)n2)[nH]c2c1C(=O)NCC2 [compound 225] | > 1000 | 100 to 1000 | 100 to 1000 | 100 to 1000 | 100 to 1000 | > 1000
COc1c(Cl)cccc1Nc1c(-c2ccnc3c2OCCN3)[nH]c2c1C(=O)NCC2 [compound 292] | > 1000 | 100 to 1000 | 100 to 1000 | < 100 | 100 to 1000 | 100 to 1000
COc1c(Cl)cccc1Nc1c(-c2nc(N)ncc2F)[nH]c2c1C(=O)NCC2 [compound 295] | > 1000 | 100 to 1000 | > 1000 | 100 to 1000 | > 1000 | 100 to 1000
COc1c(Cl)cccc1Nc1c(-c2ccnc(NCCF)n2)[nH]c2c1C(=O)NCC2 [compound 710, 3-[(3-chloro-2-methoxyphenyl)amino]-2-[2-[(2-fluoroethyl)amino]pyrimidin-4-yl]-1H,5H,6H,7H-pyrrolo[3,2-c]pyridin-4-one] | > 1000 | 100 to 1000 | 100 to 1000 | < 100 | 100 to 1000 | 100 to 1000

More lines, now with the values ahead:

IC50 (EGFR WT (Ba/F3 cells)) [nM] | IC50 [1] [nM] | IC50 [2] [nM] | IC50 [3] [nM] | IC50 [4] [nM] | IC50 [5] [nM] | Structure (SMILES)
> 1000 | > 1000 | > 1000 | > 1000 | > 1000 | > 1000 | COc1c(Cl)cccc1Nc1c(-c2ncnc3[nH]ccc23)[nH]c2c1C(=O)NCC2 [compound 289]
> 1000 | > 1000 | > 1000 | 100 to 1000 | > 1000 | > 1000 | COc1c(Cl)cccc1Nc1c(-c2ccnc(NC[C@H]3CCCO3)n2)[nH]c2c1C(=O)NCC2 [compound 721, (R)-3-((3-chloro-2-methoxyphenyl)amino)-2-(2-(((tetrahydrofuran-2-yl)methyl)amino)pyrimidin-4-yl)-1,5,6,7-tetrahydro-4H-pyrrolo[3,2-c]pyridin-4-one]
> 1000 | > 1000 | > 1000 | 100 to 1000 | > 1000 | > 1000 | COc1c(Cl)cccc1Nc1c(-c2ccnc(NC[C@@H]3CCCO3)n2)[nH]c2c1C(=O)NCC2 [compound 722, 3-[(3-chloro-2-methoxyphenyl)amino]-2-(2-[[(2S)-oxolan-2-ylmethyl]amino]pyrimidin-4-yl)-1H,5H,6H,7H-pyrrolo[3,2-c]pyridin-4-one]
